38 molecules from patent US20050282818A1, “Ubiquitin ligase inhibitors” (Rigel Pharmaceuticals, Inc., priority 2004, published 2005) can be followed below.

One assay has as its target APC11/APC2 (Homo sapiens, UniProt Q9NYG5+Q9UJX6). The assay can be described thus: APC-11/APC-2 ligase assay (APC auto ubiquitination). It is filed as biochemical. Particulars: APC assay. The gist of the method: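 His-tagged APC was captured on nickel plates with human E1 (5 ng/well), UbcH5c (20 ng/well), APC (100 ng/well) and Flag-ubiquitin (100 ng/well) in a Tris pH 7.6 reaction buffer containing 2.5 mM ATP, for 1 hour at room temperature. Read-out was anti-Flag/HRP chemiluminescence. IC50 was set against a DMSO control, typically from 6 or 8 concentrations.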

The test system of assay [1] is ICAM-1 expression in A549 cells. The assay can be described thus: ICAM assay (IL-1 induced ICAM-1/CD54 expression in A549 cells). The class given is cell-based, human. Particulars: Homo sapiens, A549, ICAM assay. The gist of the method:
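A549 cells, 10,000/well, preincubated with compound 1 h at 37° C, then stimulated with IL-1 (4 μl of 25 ng/ml added) for 4 h. Surface ICAM-1 detected by anti-CD54 plus anti-mouse IgG staining for 1 h, luminescent read-out after PBS washes.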

Molecules are shown by their SMILES.

APC11/APC2, sequence (Q9NYG5 whole entry): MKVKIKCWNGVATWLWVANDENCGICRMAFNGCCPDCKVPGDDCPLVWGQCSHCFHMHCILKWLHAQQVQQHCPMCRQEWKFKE
APC11/APC2, sequence (Q9UJX6 whole entry): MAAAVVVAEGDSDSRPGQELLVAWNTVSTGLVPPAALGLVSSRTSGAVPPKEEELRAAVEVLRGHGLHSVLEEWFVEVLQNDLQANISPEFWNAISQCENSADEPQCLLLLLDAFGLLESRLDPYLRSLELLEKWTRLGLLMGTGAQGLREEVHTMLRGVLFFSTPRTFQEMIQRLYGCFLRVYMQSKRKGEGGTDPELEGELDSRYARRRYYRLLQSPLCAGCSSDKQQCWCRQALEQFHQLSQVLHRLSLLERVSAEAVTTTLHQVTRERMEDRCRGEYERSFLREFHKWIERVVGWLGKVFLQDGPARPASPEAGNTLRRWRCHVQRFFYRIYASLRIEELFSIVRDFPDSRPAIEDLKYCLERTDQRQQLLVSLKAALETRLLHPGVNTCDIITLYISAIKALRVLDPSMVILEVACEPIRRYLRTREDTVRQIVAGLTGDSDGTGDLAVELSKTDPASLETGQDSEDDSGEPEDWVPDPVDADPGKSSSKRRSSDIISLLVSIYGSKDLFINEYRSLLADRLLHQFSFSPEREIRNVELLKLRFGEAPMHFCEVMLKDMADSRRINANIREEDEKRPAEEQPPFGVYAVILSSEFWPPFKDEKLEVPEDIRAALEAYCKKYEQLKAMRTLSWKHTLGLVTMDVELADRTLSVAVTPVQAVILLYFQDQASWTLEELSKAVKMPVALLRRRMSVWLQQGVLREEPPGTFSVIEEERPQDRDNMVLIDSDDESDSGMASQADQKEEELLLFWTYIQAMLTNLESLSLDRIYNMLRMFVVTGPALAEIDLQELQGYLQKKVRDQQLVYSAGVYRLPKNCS

Usually IC50 stands for the concentration needed to halve the response being measured. In turn, `O=[N+]([O-])c1ccc(Sc2cccc3cccnc23)c2nonc12` [compound 5, 8-[(7-Nitro-2,1,3-benzoxadiazol-4-yl)thio]quinoline] returned a half-inhibitory concentration (IC50) against APC11/APC2 of 1 to 20 µM.

On APC11/APC2, `O=[N+]([O-])c1ccc(Oc2c(Cl)cc(S(=O)(=O)Nc3cccc4nsnc34)cc2Cl)c(Cl)c1` [compound 73, N-2,1,3-benzothiadiazol-4-yl-3,5-dichloro-4-(2-chloro-4-nitrophenoxy)benzenesulfonamide] gave an IC50 of 1 to 20 µM. The molecule `O=S(=O)(Nc1cccc2nonc12)c1ccc(Oc2ncc(C(F)(F)F)cc2Cl)cc1` [compound 78, N-2,1,3-benzoxadiazol-4-yl-4-{[3-chloro-5-(trifluoromethyl)pyridin-2-yl]oxy}benzenesulfonamide] registered a concentration for half-maximal inhibition (IC50) on APC11/APC2 of 1 to 20 µM. Still for that read-out and setting: under `O=[N+]([O-])c1ccc(N2CCN(c3cc(C(F)(F)F)ccn3)CC2)c2nonc12` [compound 90, 4-nitro-7-{4-[4-(trifluoromethyl)pyridin-2-yl]piperazin-1-yl}-2,1,3-benzoxadiazole] stands 1 to 20 µM. Molecule `O=S(=O)(Nc1cccc2nsnc12)c1ccc(Oc2ccccc2)cc1` [compound 94, N-2,1,3-benzothiadiazol-4-yl-4-phenoxybenzenesulfonamide] displayed an IC50 against APC11/APC2 of 1 to 20 µM. On the same count and under the same terms, under `O=[N+]([O-])c1ccc(N2CCN(c3ncccn3)CC2)c2nonc12` [compound 109, 4-nitro-7-(1,3-(pyrimidin-2-yl)piperazin-1-yl)-2,1,3-benzoxadiazole] stands 1 to 20 µM.

At APC11/APC2, `O=[N+]([O-])c1ccc(Oc2ccc(S(=O)(=O)Nc3cccc4nonc34)cc2Cl)c(C(F)(F)F)c1` [compound 114, N-2,1,3-benzoxadiazol-4-yl-3-chloro-4-[4-nitro-2-(trifluoromethyl)phenoxy]benzenesulfonamide] registered an IC50 of 1 to 20 µM.

Molecule `N#Cc1ccc(N2CCN(c3ccc([N+](=O)[O-])c4nonc34)CC2)nc1` [compound 121, 6-[4-(7-nitro-2,1,3-benzoxadiazol-4-yl)piperazin-1-yl]nicotinonitrile] had an IC50 at APC11/APC2 of 1 to 20 µM. `Cc1ccc(N2CCN(c3ccc([N+](=O)[O-])c4nonc34)CC2)cc1C` [compound 140, 4-[4-(3,4-dimethylphenyl)piperazin-1-yl]-7-nitro-2,1,3-benzoxadiazole] returned an IC50 against APC11/APC2 of 1 to 20 µM.

For the molecule `N#CC1(c2ccccc2)CCN(c2ccc([N+](=O)[O-])c3nonc23)CC1` [compound 141, 1-(7-nitro-2,1,3-benzoxadiazol-4-yl)-4-phenylpiperidine-4-carbonitrile], on APC11/APC2, the IC50 was in the range of 1 to 20 µM.

Take `O=C(c1ccc(F)cc1)C1CCN(c2ccc([N+](=O)[O-])c3nonc23)CC1` [compound 142, (4-fluorophenyl)[1-(7-nitro-2,1,3-benzoxadiazol-4-yl)piperidin-4-yl]methanone]: the IC50 at APC11/APC2 is 1 to 20 µM.

As for `CC1CC(C)CN(c2ccc([N+](=O)[O-])c3nonc23)C1` (centres unmarked) [compound 144, 4-(3,5-dimethylpiperidin-1-yl)-7-nitro-2,1,3-benzoxadiazole], the IC50 at APC11/APC2 is 1 to 20 µM.

`Cc1ccc(Cl)cc1N1CCN(c2ccc([N+](=O)[O-])c3nonc23)CC1` [compound 145, 4-[4-(5-chloro-2-methylphenyl)piperazin-1-yl]-7-nitro-2,1,3-benzoxadiazole] registered an IC50 on APC11/APC2 of 1 to 20 µM.

Consider `O=[N+]([O-])c1ccc(N2CCN(c3ccc(O)cc3)CC2)c2nonc12` [compound 146, 4-[4-(7-nitro-2,1,3-benzoxadiazol-4-yl)piperazin-1-yl]phenol], for which, on APC11/APC2, the 50% inhibitory concentration (IC50) lay within 1 to 20 µM. Still for that read-out and setting: under `O=[N+]([O-])c1ccc(N2CCN(c3ncccc3C(F)(F)F)CC2)c2nonc12` [compound 148, 4-nitro-7-{4-[3-(trifluoromethyl)pyridin-2-yl]piperazin-1-yl}-2,1,3-benzoxadiazole] stands 1 to 20 µM. For the molecule `O=[N+]([O-])c1ccc(SCCO)c2nonc12` [compound 150, 2-[(7-nitro-2,1,3-benzoxadiazol-4-yl)thio]ethanol], the concentration for half-maximal inhibition (IC50) in assay [1] is at least 20 µM. With `CCOC(=O)c1cc(C#N)c(C)nc1N1CCN(c2ccc([N+](=O)[O-])c3nonc23)CC1` [compound 153, ethyl 5-cyano-6-methyl-2-[4-(7-nitro-2,1,3-benzoxadiazol-4-yl)piperazin-1-yl]nicotinate], on APC11/APC2, the IC50 is 1 to 20 µM. On the same count and under the same terms, under `O=[N+]([O-])c1ccc(N2CCC(O)(c3ccc(Cl)cc3)CC2)c2nonc12` [compound 159, 4-(4-chlorophenyl)-1-(7-nitro-2,1,3-benzoxadiazol-4-yl)piperidin-4-ol] stands 1 to 20 µM. In assay [1], `COC(=O)c1ccc(NS(=O)(=O)c2ccc(F)c3nonc23)cc1` [compound 167, methyl 4-{[(7-fluoro-2,1,3-benzoxadiazol-4-yl)sulfonyl]amino}benzoate] yielded an IC50 of at least 20 µM.

Turning to `N#Cc1cccnc1N1CCN(S(=O)(=O)c2ccc(Cl)c3nonc23)CC1` [compound 170, 2-{4-[(7-chloro-2,1,3-benzoxadiazol-4-yl)sulfonyl]piperazin-1-yl}nicotinomtrile], the 50% inhibitory concentration (IC50) in assay [1] is at least 20 µM. `O=S(=O)(Oc1ccc(N2CCN(S(=O)(=O)c3ccc(Cl)c4nonc34)CC2)cc1)c1ccc(Cl)c2nonc12` [compound 171, 4-{4-[(7-chloro-2,1,3-benzoxadiazol-4-yl)sulfonyl]piperazin-1-yl}phenyl 7-chloro-2,1,3-benzoxadiazole-4-sulfonate] returned an IC50 against APC11/APC2 of 1 to 20 µM. On the same count and under the same terms, then `O=S(=O)(c1ccc(Sc2cccc3cccnc23)c2nonc12)N1CCN(c2ncc(C(F)(F)F)cc2Cl)CC1` [compound 177, 8-{[7-({4-[3-chloro-5-(trifluoromethyl)pyridin-2-yl]piperazin-1-yl}sulfonyl)-2,1,3-benzoxadiazol-4-yl]thio}quinoline], with 1 to 20 µM. For `COC(=O)c1ccc(NS(=O)(=O)c2c(Cl)ccc3nonc23)cc1` [compound 178, methyl 4-{[(5-chloro-2,1,3-benzoxadiazol-4-yl)sulfonyl]amino}benzoate], in assay [1], the half-inhibitory concentration (IC50) is at least 20 µM. In the case of `N#Cc1ccccc1N1CCN(S(=O)(=O)c2c(Cl)ccc3nonc23)CC1` [compound 180, 2-{4-[(5-chloro-2,1,3-benzoxadiazol-4-yl)sulfonyl]piperazin-1-yl}benzonitrile], the concentration for half-maximal inhibition (IC50) in assay [1] is at least 20 µM. Molecule `O=S(=O)(c1c(N2CCN(c3ccc(Cl)c(C(F)(F)F)c3)CC2)ccc2nonc12)N1CCN(c2ccc(Cl)c(C(F)(F)F)c2)CC1` [compound 181, 5-{4-[4-chloro-3-(trifluoromethyl)phenyl]piperazin-1-yl}-4-({4-[4-chloro-3-(trifluoromethyl)phenyl]piperazin-1-yl}sulfonyl)-2,1,3-benzoxadiazole] showed an IC50 on APC11/APC2 of 1 to 20 µM.

As for `O=S(=O)(c1ccc(Cl)c2nonc12)N1CCN(c2ncccn2)CC1` [compound 184, 4-chloro-7-[(4-pyrimidin-2-ylpiperazin-1-yl)sulfonyl]-2,1,3-benzoxadiazole], in assay [1], the 50% inhibitory concentration (IC50) was at least 20 µM. On the same count and under the same terms, then `O=S(=O)(c1ccc(Cl)c2nonc12)N1CCN(c2ccccc2)CC1` [compound 186, 4-chloro-7-[(4-phenylpiperazin-1-yl)sulfonyl]-2,1,3-benzoxadiazole], with at least 20 µM; and `O=c1[nH]c2ccccc2n1C1CCN(S(=O)(=O)c2ccc(Cl)c3nonc23)CC1` [compound 188, 1-{1-[(7-chloro-2,1,3-benzoxadiazol-4-yl)sulfonyl]piperidin-4-yl}-1,3-dihydro-2H-benzimidazol-2-one], with at least 20 µM. The same measure, in the same setting: under `CC1CC(C)CN(S(=O)(=O)c2ccc(Cl)c3nonc23)C1` (centres unmarked) [compound 192, 4-chloro-7-[(3,5-dimethylpiperidin-1-yl)sulfonyl]-2,1,3-benzoxadiazole] stands at least 20 µM. The molecule `O=S(=O)(c1c(Cl)ccc2nonc12)N1CCN(c2cnccn2)CC1` [compound 200, 5-chloro-4-[(4-pyrazin-2-ylpiperazin-1-yl)sulfonyl]-2,1,3-benzoxadiazole] displayed a concentration for half-maximal inhibition (IC50) in assay [1] of at least 20 µM. In assay [1], `CC(=O)N1CCN(S(=O)(=O)c2c(Cl)ccc3nonc23)CC1` [compound 201, 4-[(4-acetylpiperazin-1-yl)sulfonyl]-5-chloro-2,1,3-benzoxadiazole] had an IC50 of at least 20 µM. On the same count and under the same terms, then `Cc1cccc(N2CCN(S(=O)(=O)c3c(Cl)ccc4nonc34)CC2)n1` [compound 202, 5-chloro-4-{[4-(6-methylpyridin-2-yl)piperazin-1-yl]sulfonyl}-2,1,3-benzoxadiazole], with at least 20 µM. The molecule `N#Cc1ccc(N2CCN(S(=O)(=O)c3c(Cl)ccc4nonc34)CC2)nc1` [compound 209, 6-{4-[(5-chloro-2,1,3-benzoxadiazol-4-yl)sulfonyl]piperazin-1-yl}nicotinonitrile] showed an IC50 in assay [1] of at least 20 µM. The same measure, in the same setting: under `CC(=O)N1CCN(S(=O)(=O)c2c(Sc3cccc4cccnc34)ccc3nonc23)CC1` [compound 214, 8-({4-[(4-acetylpiperazin-1-yl)sulfonyl]-2,1,3-benzoxadiazol-5-yl}thio)quinoline] stands at least 20 µM. `O=S(=O)(Nc1ccc2cn[nH]c2c1)c1ccc(Cl)c2nonc12` [compound 220, 7-chloro-N-1 H-indazol-6-yl-2,1,3-benzoxadiazole-4-sulfonamide]: the concentration for half-maximal inhibition (IC50) in assay [1] was at least 20 µM.

On to `O=S(=O)(c1ccc(Sc2ccc(O)cc2)c2nonc12)N1CCC(Oc2ncccn2)CC1` [compound 226, 4-[(7-{[4-(pyrimidin-2-yloxy)piperidin-1-yl]sulfonyl}-2,1,3-benzaxadiazol-4-yl)thio]phenol], for which the 50% inhibitory concentration (IC50) in assay [1] was at least 20 µM.

Regarding `O=S(=O)(Nc1ccc(F)c(F)c1)c1ccc(Cl)c2nonc12` [compound 262, 7-chloro-N-(3,4-difluorophenyl)-2,1,3-benzoxadiazole-4-sulfonamide], in assay [1], the half-inhibitory concentration (IC50) is at least 20 µM.

The molecule `O=S(=O)(Nc1cccc(F)c1)c1ccc(Cl)c2nonc12` [compound 263, 7-chloro-N-(3-fluorophenyl)-2,1,3-benzoxadiazole-4-sulfonamide] showed a half-maximal inhibitory concentration (IC50) in assay [1] of at least 20 µM.
